# Laboratory results published in ChEMBL document CHEMBL5463728, “Data for DCP probe BAY-6096” (2023).
# What was measured:
# [1] = biological target: B2 bradykinin receptor (Homo sapiens) (UniProt P30411); conditions: Compound concentration 10.0 uM
# [2] = biological target: Nitric oxide synthase, inducible (Homo sapiens) (UniProt P35228); assay: Inhibition of Nitric Oxide Synthase, Inducible (iNOS) at compound concentration of 10.0 uM in the Eurofins-Panlabs enzyme assay (Eurofins_assay_199010); set-up: substrate with concentration; conditions: Mus musculus; Compound concentration 10.0 uM
# [3] = biological target: Vasopressin V1a receptor (Homo sapiens) (UniProt P37288); conditions: Compound concentration 10.0 uM
# Chain of Vasopressin V1a receptor (Homo sapiens) (P37288 whole entry, looked up): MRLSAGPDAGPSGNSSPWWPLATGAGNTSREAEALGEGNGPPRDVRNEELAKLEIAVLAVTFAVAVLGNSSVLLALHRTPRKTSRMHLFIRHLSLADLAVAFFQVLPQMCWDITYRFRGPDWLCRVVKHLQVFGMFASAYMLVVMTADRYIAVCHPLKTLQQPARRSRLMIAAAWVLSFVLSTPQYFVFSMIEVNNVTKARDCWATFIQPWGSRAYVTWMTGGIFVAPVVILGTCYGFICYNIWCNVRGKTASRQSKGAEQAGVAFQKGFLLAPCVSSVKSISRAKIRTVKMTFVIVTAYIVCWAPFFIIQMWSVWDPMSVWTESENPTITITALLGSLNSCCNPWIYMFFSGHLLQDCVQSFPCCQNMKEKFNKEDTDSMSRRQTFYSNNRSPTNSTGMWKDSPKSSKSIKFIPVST
# [4] = biological target: T1, Muscarinic acetylcholine receptor M2 (Homo sapiens) (UniProt P08172); conditions: Compound concentration 10.0 uM
# T1 sequence (whole entry): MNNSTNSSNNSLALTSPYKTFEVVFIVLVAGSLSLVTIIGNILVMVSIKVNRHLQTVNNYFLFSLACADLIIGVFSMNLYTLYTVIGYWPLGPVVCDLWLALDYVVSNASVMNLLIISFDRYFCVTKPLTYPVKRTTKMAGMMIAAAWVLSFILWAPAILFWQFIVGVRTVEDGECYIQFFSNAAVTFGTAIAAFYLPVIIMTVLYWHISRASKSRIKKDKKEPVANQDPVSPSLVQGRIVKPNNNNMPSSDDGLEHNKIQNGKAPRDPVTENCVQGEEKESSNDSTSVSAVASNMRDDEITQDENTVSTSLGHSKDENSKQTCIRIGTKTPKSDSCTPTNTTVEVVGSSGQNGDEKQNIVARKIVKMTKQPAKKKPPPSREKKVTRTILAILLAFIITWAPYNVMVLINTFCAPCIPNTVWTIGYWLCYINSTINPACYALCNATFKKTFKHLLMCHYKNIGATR
# [5] = biological target: Phosphodiesterase 3 (Homo sapiens) (UniProt Q14432+Q13370); assay: Inhibition of Phosphodiesterase PDE3 at compound concentration of 10.0 uM in the Eurofins-Panlabs enzyme assay (Eurofins_assay_152000); assay type: protein assay; set-up: substrate with concentration 1.01 uM [3H] cAMP + cAMP, incubation time 20 min, incubation temperature 25 C; conditions: Compound concentration 10.0 uM
# [6] = biological target: Acetylcholinesterase (Homo sapiens) (UniProt P22303); conditions: Compound concentration 10.0 uM
# Chain of Acetylcholinesterase (Homo sapiens) (P22303 whole entry): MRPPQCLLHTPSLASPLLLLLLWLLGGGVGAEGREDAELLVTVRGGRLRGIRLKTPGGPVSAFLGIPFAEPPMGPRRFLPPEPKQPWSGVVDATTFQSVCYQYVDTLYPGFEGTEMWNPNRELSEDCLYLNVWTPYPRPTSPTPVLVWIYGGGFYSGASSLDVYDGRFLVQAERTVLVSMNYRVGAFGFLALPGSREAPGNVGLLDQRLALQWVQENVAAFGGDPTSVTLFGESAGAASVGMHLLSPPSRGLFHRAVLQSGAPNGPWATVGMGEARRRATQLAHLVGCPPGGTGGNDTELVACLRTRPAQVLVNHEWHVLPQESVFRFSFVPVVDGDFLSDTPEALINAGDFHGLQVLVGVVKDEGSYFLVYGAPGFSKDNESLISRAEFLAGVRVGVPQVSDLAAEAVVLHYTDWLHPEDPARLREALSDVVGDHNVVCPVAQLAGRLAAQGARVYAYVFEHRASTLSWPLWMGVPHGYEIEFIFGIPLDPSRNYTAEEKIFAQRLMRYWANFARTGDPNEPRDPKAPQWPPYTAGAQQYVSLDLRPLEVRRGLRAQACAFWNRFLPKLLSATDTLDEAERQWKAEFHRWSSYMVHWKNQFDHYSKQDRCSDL
# [7] = biological target: Beta-1 adrenergic receptor (Homo sapiens, UniProt P08588); assay: Adrenoceptor reporter cell assay (ADRB1); assay type: functional
# Chain of Beta-1 adrenergic receptor (P08588 whole entry): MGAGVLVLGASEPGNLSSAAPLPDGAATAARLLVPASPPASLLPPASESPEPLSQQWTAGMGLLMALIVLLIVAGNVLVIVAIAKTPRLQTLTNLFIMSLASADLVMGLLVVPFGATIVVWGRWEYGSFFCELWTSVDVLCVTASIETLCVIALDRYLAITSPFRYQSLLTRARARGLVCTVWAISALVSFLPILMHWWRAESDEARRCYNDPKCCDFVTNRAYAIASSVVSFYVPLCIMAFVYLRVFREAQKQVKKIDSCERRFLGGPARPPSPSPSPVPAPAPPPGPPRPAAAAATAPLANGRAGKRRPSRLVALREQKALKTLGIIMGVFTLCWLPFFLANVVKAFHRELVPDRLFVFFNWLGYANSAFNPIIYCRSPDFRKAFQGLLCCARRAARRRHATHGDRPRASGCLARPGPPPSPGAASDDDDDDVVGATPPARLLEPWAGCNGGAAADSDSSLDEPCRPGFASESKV
# [8] = biological target: Adenosine receptor A2a (Homo sapiens) (UniProt P29274); conditions: Compound concentration 10.0 uM
# [9] = biological target: Progesterone receptor (Homo sapiens) (UniProt P06401); conditions: Compound concentration 10.0 uM
# [10] = biological target: Adenosine receptor A1 (Homo sapiens) (UniProt P30542); conditions: Compound concentration 10.0 uM
# Chain of Adenosine receptor A1 (Homo sapiens) (P30542 whole entry): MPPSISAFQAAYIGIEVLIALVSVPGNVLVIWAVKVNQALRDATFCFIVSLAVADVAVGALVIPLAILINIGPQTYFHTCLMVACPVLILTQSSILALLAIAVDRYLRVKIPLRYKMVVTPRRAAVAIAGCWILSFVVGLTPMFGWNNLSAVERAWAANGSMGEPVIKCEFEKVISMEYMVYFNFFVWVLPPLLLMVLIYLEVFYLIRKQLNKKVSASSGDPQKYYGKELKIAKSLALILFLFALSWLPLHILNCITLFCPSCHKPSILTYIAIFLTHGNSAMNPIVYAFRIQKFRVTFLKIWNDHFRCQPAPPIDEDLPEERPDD
# [11] = biological target: T2, 5-hydroxytryptamine receptor 2C (Homo sapiens) (UniProt P28335); conditions: Compound concentration 10.0 uM
# T2 sequence (whole entry): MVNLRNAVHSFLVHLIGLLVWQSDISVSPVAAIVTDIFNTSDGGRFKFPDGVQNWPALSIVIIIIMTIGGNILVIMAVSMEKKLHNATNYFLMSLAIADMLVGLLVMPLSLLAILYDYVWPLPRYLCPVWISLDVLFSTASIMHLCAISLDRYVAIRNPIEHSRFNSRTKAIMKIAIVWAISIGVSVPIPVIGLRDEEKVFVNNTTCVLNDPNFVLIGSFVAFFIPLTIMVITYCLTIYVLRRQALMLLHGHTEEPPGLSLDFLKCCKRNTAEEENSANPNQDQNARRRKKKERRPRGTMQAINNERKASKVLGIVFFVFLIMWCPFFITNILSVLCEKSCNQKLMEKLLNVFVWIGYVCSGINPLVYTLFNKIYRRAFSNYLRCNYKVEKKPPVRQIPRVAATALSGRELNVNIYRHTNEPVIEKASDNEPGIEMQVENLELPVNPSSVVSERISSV
# [12] = biological target: Carbonic anhydrase 2 (Homo sapiens) (UniProt P00918); assay: Inhibition of Carbonic Anhydrase II at compound concentration of 10.0 uM in the Eurofins-Panlabs enzyme assay (Eurofins_assay_112020); set-up: substrate with concentration; conditions: Compound concentration 10.0 uM
# [13] = biological target: Histamine H1 receptor (Homo sapiens) (UniProt P35367); conditions: Compound concentration 10.0 uM
# Chain of Histamine H1 receptor (Homo sapiens) (P35367 whole entry): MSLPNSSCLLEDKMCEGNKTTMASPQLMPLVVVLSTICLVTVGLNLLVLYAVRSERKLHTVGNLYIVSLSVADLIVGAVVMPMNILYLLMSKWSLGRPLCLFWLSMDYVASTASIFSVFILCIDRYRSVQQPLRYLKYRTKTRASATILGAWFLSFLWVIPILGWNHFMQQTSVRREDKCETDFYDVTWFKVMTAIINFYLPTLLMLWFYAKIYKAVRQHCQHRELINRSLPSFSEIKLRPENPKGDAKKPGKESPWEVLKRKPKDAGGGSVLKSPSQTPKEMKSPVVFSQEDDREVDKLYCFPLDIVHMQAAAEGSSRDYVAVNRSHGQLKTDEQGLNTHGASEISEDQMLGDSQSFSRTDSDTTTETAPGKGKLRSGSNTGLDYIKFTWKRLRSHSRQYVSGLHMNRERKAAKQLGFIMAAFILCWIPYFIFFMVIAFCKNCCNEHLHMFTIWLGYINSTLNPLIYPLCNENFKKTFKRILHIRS
# [14] = biological target: cGMP-specific 3',5'-cyclic phosphodiesterase (Homo sapiens) (UniProt O76074); conditions: Compound concentration 10.0 uM
# [15] = biological target: Histamine H3 receptor (Homo sapiens) (UniProt Q9Y5N1); conditions: Compound concentration 10.0 uM
# Chain of Histamine H3 receptor (Homo sapiens) (Q9Y5N1 whole entry): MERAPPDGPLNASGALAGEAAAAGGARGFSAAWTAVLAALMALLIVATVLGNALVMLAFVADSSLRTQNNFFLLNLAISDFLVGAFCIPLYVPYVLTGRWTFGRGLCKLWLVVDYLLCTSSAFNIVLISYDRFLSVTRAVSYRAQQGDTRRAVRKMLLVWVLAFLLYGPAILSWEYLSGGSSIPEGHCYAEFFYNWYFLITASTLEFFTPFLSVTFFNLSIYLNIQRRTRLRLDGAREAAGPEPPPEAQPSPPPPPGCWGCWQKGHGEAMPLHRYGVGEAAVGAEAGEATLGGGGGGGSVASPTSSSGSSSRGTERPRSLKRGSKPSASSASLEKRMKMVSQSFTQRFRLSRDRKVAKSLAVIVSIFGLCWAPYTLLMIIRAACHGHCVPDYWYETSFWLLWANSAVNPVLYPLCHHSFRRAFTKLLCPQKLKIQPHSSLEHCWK
# [16] = biological target: Sodium-dependent serotonin transporter (Homo sapiens) (UniProt P31645); conditions: Compound concentration 10.0 uM
# [17] = biological target: Glutamate receptor ionotropic, kainate (Rattus norvegicus) (UniProt P22756+Q01812+P42260+P42264+Q63273); conditions: Compound concentration 10.0 uM
# Sus scrofa = species on record: Sus scrofa; assay: Inhibition of ATPase, Na+/K+, Heart at compound concentration of 10.0 uM in the Eurofins-Panlabs enzyme assay (Eurofins_assay_107710); set-up: substrate with concentration; conditions: Compound concentration 10.0 uM
# [18] = biological target: B1 bradykinin receptor (Homo sapiens) (UniProt P46663); conditions: Compound concentration 10.0 uM
# [19] = biological target: Mu-type opioid receptor (Homo sapiens) (UniProt P35372); conditions: Compound concentration 10.0 uM
# [20] = biological target: Androgen receptor (Homo sapiens) (UniProt P10275); conditions: Compound concentration 10.0 uM
# [21] = biological target: Polyunsaturated fatty acid lipoxygenase ALOX15 (Homo sapiens) (UniProt P16050); assay: Inhibition of Lipoxygenase 15-LO at compound concentration of 10.0 uM in the Eurofins-Panlabs enzyme assay (Eurofins_assay_199017); conditions: Compound concentration 10.0 uM
# Homo sapiens = species on record: Homo sapiens; assay: Inhibition of Nicotinic Acetylcholine at compound concentration of 10.0 uM in the Eurofins-Panlabs radioligand binding assay (Eurofins_assay_258590); assay type: protein-complex assay; conditions: Compound concentration 10.0 uM
# [22] = biological target: Sodium-dependent noradrenaline transporter (Homo sapiens) (UniProt P23975); conditions: Compound concentration 10.0 uM
# Chain of Sodium-dependent noradrenaline transporter (Homo sapiens) (P23975 whole entry): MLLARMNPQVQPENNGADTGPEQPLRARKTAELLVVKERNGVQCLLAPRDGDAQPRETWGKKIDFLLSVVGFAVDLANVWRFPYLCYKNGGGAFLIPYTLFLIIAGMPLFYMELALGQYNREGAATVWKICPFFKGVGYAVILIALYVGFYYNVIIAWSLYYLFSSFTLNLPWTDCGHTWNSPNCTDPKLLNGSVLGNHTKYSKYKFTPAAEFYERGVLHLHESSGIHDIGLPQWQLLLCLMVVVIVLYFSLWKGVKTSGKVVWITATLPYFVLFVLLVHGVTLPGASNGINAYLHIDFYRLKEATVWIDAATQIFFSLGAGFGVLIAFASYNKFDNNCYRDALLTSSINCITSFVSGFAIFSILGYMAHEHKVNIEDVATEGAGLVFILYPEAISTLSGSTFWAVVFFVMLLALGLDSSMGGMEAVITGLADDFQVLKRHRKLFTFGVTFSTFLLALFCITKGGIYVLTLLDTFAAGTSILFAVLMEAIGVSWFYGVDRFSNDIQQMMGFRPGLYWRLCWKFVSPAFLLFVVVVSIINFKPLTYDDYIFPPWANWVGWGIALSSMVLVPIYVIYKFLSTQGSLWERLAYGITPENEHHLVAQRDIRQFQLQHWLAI
# [23] = biological target: Endothelin receptor type B (Homo sapiens) (UniProt P24530); conditions: Compound concentration 10.0 uM
# Rattus norvegicus = species on record: Rattus norvegicus; conditions: Compound concentration 10.0 uM
# [24] = biological target: Beta-2 adrenergic receptor (Homo sapiens, UniProt P07550); conditions: Compound concentration 10.0 uM
# Chain of Beta-2 adrenergic receptor (P07550 whole entry, looked up): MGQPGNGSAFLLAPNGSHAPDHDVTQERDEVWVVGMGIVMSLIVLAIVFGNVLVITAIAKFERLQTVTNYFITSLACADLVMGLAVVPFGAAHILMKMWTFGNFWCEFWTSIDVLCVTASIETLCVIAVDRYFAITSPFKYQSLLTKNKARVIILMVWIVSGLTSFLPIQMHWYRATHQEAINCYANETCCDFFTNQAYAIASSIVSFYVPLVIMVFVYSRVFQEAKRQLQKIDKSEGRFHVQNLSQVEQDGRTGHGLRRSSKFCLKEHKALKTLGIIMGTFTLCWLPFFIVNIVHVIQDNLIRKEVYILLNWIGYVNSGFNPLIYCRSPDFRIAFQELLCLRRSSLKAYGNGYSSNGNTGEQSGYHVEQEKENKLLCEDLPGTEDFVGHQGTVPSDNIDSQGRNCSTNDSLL
# [25] = biological target: Muscarinic acetylcholine receptor M3 (Homo sapiens) (UniProt P20309); conditions: Compound concentration 10.0 uM
# [26] = biological target: Histamine H2 receptor (Homo sapiens) (UniProt P25021); conditions: Compound concentration 10.0 uM
# [27] = biological target: Alpha-1D adrenergic receptor (Homo sapiens, UniProt P25100); assay: Adrenoceptor reporter cell assay (ADRA1D); assay type: functional
# Chain of Alpha-1D adrenergic receptor (P25100 whole entry): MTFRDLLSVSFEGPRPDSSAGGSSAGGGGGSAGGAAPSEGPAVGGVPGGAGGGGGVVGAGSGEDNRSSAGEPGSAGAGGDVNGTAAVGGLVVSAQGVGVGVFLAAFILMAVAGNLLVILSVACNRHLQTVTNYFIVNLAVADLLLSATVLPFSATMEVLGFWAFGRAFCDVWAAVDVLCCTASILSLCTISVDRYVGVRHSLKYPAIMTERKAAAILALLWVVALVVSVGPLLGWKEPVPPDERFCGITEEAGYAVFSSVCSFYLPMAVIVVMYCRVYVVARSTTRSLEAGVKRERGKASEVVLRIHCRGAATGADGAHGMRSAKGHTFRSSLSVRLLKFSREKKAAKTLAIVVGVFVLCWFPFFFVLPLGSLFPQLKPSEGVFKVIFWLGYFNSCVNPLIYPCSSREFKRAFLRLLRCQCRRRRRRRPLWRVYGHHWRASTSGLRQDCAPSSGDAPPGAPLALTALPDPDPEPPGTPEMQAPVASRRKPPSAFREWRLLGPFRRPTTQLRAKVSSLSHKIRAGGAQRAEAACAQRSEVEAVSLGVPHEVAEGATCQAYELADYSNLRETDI
# [28] = biological target: 5-hydroxytryptamine receptor 1A (Homo sapiens, UniProt P08908); assay: GPCRScan assay: inhibition of 5-HT1A; set-up: radioligand conc. used [nm] 0.5 – 1.0, parental cells stable CHO
# Chain of 5-hydroxytryptamine receptor 1A (P08908 whole entry): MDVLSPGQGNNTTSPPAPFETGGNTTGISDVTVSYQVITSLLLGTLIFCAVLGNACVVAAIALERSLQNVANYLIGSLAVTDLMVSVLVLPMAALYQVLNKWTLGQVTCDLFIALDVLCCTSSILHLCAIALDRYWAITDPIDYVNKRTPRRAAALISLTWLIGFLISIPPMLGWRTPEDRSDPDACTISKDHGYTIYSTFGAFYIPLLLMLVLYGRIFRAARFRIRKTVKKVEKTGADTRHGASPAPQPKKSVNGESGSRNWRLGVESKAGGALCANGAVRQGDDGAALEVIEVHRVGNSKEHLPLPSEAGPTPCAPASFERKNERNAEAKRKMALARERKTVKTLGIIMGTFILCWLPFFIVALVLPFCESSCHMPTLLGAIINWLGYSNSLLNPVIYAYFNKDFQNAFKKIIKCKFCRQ
smiles,measurement,setting,value
CNc1cc[n+](CCNC(=O)c2ccn3c(-c4c(C)noc4C)cnc3c2)cc1,inhibition,[1],-1.8%
same,inhibition,[2],6.3%
same,inhibition,[3],-2.3%
same,inhibition,[4],6.4%
same,inhibition,[5],3.4%
same,inhibition,[6],14.8%
same,IC50,[7],> 10 µM (not active)
same,inhibition,[8],-8.3%
same,inhibition,[9],11.8%
same,inhibition,[10],1.2%
same,inhibition,[11],0.5%
same,inhibition,[12],3%
same,inhibition,[13],0.5%
same,inhibition,[14],3.6%
same,inhibition,[15],1.6%
same,inhibition,[16],0.4%
same,inhibition,[17],0.2%
same,inhibition,Sus scrofa,-2.1%
same,inhibition,[18],-0.9%
same,inhibition,[19],0.1%
same,inhibition,[20],-2.7%
same,inhibition,[21],-0.5%
same,inhibition,Homo sapiens,9.4%
same,inhibition,[22],2.7%
same,inhibition,[23],-2.3%
same,inhibition,Rattus norvegicus,4.24%
same,inhibition,[24],-4.49%
same,inhibition,[25],-0.2%
same,inhibition,[26],-0.4%
same,IC50,[27],> 10 µM (not active)
Cc1noc(C)c1-c1cnc2cc(C(=O)NCCC[n+]3ccc(N(C)C)cc3)ccn12,Ki,[28]; read-out: Ki,0.212 µM
same,Ki,[28]; read-out: pKi (converted),0.182 µM
